Laboratory results reported in patent US12012408B2, “Purine compounds and method for the treatment of cancer” (THE ROYAL INSTITUTION FOR THE ADVANCEMENT OF …, priority 2018, dated 2024).

Assays:
[1] = tested on: cleaved-PARP, cleaved-caspase 3, Bcl-2 in MDA-MB-231 and BT-20 cells; assay: Western blot of indicators of apoptosis; assay type: cell-based; conditions: FIG. 6B
Method: Sub-confluent cells were washed with PBS, lysed in RIPA buffer (50 mM Tris-HCl at pH7.5, 150 mM sodium chloride, 1% tritonX-100, 0.1% SDS, 2 mM EDTA and 25 mM sodium fluoride) supplemented with 1 mM PMSF and protease inhibitor cocktail (Roche) for 10 min on ice and centrifuged (13,000 rpm at 4° C. for 20 min) to separate cell lysate. Cell lysate (50 μg protein, as measured by the Bradford protein assay) was then added with SDS sample buffer (Tris at pH 6.8, 20% glycerol, 5% SDS, bromophenol blue and β-mercaptoethanol) and boiled for 5 min. Samples were then resolved through 13% SDS-PAGE gels, transferred to nitrocellulose membrane, blotted with specific first antibodies at different dilution in cold room overnight, and then amplified with horseradish peroxidase-conjugated secondary antibodies for 1 hour in room temperature and enhanced by chemiluminescence detection system.
Considering apoptosis is the major form of cell death induced by chemotherapeutic agent, we seek to identify whether the anticancer effect of SLLN-15 was mediated via apoptosis in breast cancer cells.

[2] = tested on: MDA-MB-231 and BT-20 cells; assay: MTT assay (short-term cell viability); assay type: cell-based; conditions: time-dependent, SLLN-15 compared with vorinostat; FIG. 6A
Method: The short-term effects of SLLN-15 on tumor cell growth were assessed using the 3-(4,5-dimethylthiazol-2-yl)-2,5-diphenylte-trazolium bromide (MTT; Sigma) assay. Cells were seeded at a density of 5000 cells/well in a 96-well plate and treated with SLLN-15 as indicated concentration or DMSO for 24 hours. MTT solution (5 mg/ml in RPMI 1640 medium) was added (20 μl/well), and plates were incubated for 4 hours in dark at 37° C., then the purple formazan crystals were then dissolved in 100 μl MTT solvent (4 mM HCl and 0.1% NP-40 in isopropanol). The plates were read on FLUOstar OPTIMA microplate reader (BMG Labtech, Ortenberg, Germany) at 570 nm. Assays were performed in triplicate on three independent experiments.

O=C(CCCCCCC(=O)Nc1ccccc1)NO [vorinostat, suberoylanilide hydroxamic acid, reference compound]
indicators of apoptosis: upregulation of cleaved-PARP and cleaved-caspase 3, downregulation of Bcl-2 [1]: only detected in vorinostat treated cells | cell viability (MTT) [2]: markedly decreased cell viability
